Where two headings read alike, the source gives them in different places.
Key:
C. neoformans = conditions: cited from earlier work
P. infestans [1] = conditions: cited from earlier work
LcsG = target: T1, LcsG (Purpureocillium lilacinum, UniProt A0A179H2P2); experiment: Michaelis-Menten enzyme kinetics of LcsG with leucinostatin substrates; type: biochemical, Purpureocillium lilacinum PLBJ-1; conditions: for Kcat/Km: compound as substrate of LcsG, from the Michaelis-Menten fit; for Kcat / Km: compound as substrate, 1 μM LcsG, 34 °C, 30 min, product formation by LC-MS, nonlinear regression, n = 3
T1 construct: pACYC-lcsG was generated by integrating the lcsG gene from the PLBJ-1 cDNA into the protein expression vector pACYCDuet-1; His6 (N); His6 (C); made in house; host or cells: E. coli ArcticExpress (DE3)
T1 sequence (A0A179H2P2 1-468): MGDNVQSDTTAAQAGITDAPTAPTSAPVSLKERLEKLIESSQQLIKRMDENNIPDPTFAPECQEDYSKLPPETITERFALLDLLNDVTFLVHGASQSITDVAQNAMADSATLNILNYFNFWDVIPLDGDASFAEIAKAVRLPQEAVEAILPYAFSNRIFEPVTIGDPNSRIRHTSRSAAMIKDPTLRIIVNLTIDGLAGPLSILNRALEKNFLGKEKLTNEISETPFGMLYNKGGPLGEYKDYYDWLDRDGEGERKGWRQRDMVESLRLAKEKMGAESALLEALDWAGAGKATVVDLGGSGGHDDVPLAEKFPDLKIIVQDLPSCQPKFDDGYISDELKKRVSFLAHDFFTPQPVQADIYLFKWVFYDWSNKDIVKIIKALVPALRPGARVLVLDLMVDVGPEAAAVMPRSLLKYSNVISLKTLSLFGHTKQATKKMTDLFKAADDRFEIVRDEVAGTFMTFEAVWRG
Protocol: The compounds were quantified by an external standard method and calibration curves were constructed using LeuA0 and LeuK3. In this study, LeuA0 was diluted to concentrations of 25, 50, 100, 250, and 500 nM. LeuK3 was also diluted to concentrations of 50, 100, 250, 500, and 1000 nM. Dilutions were prepared in MeCN, and calibration curves were constructed using the software GraphPad Prism 9.
The kinetic constants of LcsG were determined by the following approach: 1 μM LcsG was assayed against different specific concentrations of the substrates LeuA (2, 4, 8, 10, 20, 40, 80, 100, 120, 150, and 200 μM) and LeuK0 (4, 8, 10, 20, 40, 80, 100, 120, 140, and 160 μM). The initial rate of the reaction was measured by monitoring the formation of products (LeuA0 or LeuK3) at 34 °C for 30 min. The rates were plotted against substrate concentration using the Michaelis‒Menten kinetics equation by nonlinear regression analysis with the software GraphPad Prism 9, and Km and Kcat constants were generated from the resulting Michaelis‒Menten plot.
LC‒MS analyses were performed on an Agilent 1290 Infinity II HPLC with an Agilent Infinity Lab single quadrupole mass selective detector by using an Agilent Zorbax Eclipse Plus C18 reversed-phase column (2.1 × 100 mm, 2.7 μm). Water (A) with 0.1% (v/v) formic acid and acetonitrile (B) were used as the solvents at a flow rate of 0.25 ml min^−1. The substances were eluted with 10% (v/v) B for 1 min, subjected to a linear gradient from 10 to 100% (v/v) B for 12 min, washed with 100% solvent B for 5 min, and equilibrated with 5% solvent B for 10 min at a flow rate of 0.25 ml/min. The mass spectrometer was set in electrospray positive ion mode for ionization.

P. infestans [2] = tested on: P. infestans

## leucinostatin A [LeuA]
C. neoformans
  inhibitory effects on C. neoformans: inhibitory effects
P. infestans [1]
  inhibitory effects on P. infestans: inhibitory effects
LcsG
  Kcat/Km: 65.39 M⁻¹ s⁻¹
  Kcat: 0.00075 s⁻¹
  Km: 11.5 µM

## leucinostatin B [LeuB]
C. neoformans
  inhibitory effects on C. neoformans: inhibitory effects
P. infestans [1]; previous studies
  inhibitory effects on P. infestans: inhibitory effects

## leucinostatin K0 [LeuK0]
C. neoformans H99
  growth inhibition, agar diffusion assay: inhibitory effects
LcsG
  Kcat/Km: 32.94 M⁻¹ s⁻¹
  Kcat: 0.00624 s⁻¹
  Km: 189 µM
P. infestans [2]
  growth inhibition, agar diffusion assay: inhibitory effects
